For this experiment, the system named is C. difficile ATCC 43255. The experiment in a line: Determination of minimal-inhibitory concentrations (microdilution), C. difficile ATCC 43255. Format: cell-based, Clostridioides difficile. The conditions noted are these: for MIC: Clostridioides difficile.
[1] abbreviates: ATCC43255, 24 h, C. difficile ATCC 43255, 24 h, read-out: MIC (μg/mL) 24 h.
Setting [2] is: ATCC43255, 48 h, C. difficile ATCC 43255, 48-h incubation, read-out: MIC (μg/mL) 48 h.
Where [3] appears, read: C. difficile ATCC 43255, 48-h incubation.

The structures appear in SMILES notation. In brackets after ≈: the same amount, converted by molar mass. Like-named read-outs stand apart in the source and are kept apart here.

For `CC(C)(C)OC(=O)N1CCC(Oc2ccc(-c3noc(-c4ncc([N+](=O)[O-])[nH]4)n3)cc2)CC1` [Compound 133, 3-(4-((1-(tert-Butoxycarbonyl)piperidin-4-yl)oxy)phenyl)-5-(5-nitro-1H-imidazol-2-yl)-1,2,4-oxadiazole], the MIC was over 128 µg/mL under setting [1] and over 128 µg/mL under setting [2].

As to `O=Cc1ccc(-c2noc(-c3ccc(O)cc3)n2)cc1` [Compound 107, 4-(5-(4-Hydroxyphenyl)-1,2,4-oxadiazol-3-yl)benzaldehyde], the MIC under setting [1] is 64 µg/mL (≈ 240 µM) and the MIC under setting [2] is over 128 µg/mL.

Regarding `Oc1ccc(-c2nnc(-c3ccc(OC4CCCC4)cc3)o2)cc1` [Compound 139, 4-(5-(4-(Cyclopentyloxy)phenyl)-1,3,4-oxadiazol-2-yl)phenol], the “MIC (μg/mL) 48 h” value under setting [3] is over 128 µg/mL. Under setting [1], the MIC is over 128 µg/mL.

For the molecule `COC(OC)c1ccc(-c2noc(-c3ccc(O)cc3)n2)cc1` [Compound 106, 4-(3-(4-(Dimethoxymethyl)phenyl)-1,2,4-oxadiazol-5-yl)phenol], the MIC is 64 µg/mL (≈ 205 µM) under setting [1] and over 128 µg/mL under setting [2].

Regarding `c1cc2cc(-c3nc(-c4ccc(OC5CCCC5)cc4)no3)ccc2[nH]1` [Compound 56, 3-(4-(Cyclopentyloxy)phenyl)-5-(1H-indol-5-yl)-1,2,4-oxadiazole], under setting [3], the “MIC (μg/mL) 48 h” value was over 128 µg/mL. The MIC runs as follows: under setting [1], over 128 µg/mL; under setting [2], over 128 µg/mL.

Turning to `Oc1ccc(Nc2nc(-c3ccc(OC4CCCC4)cc3)no2)cc1` [Compound 64, 4-((3-(4-(Cyclopentyloxy)phenyl)-1,2,4-oxadiazol-5-yl)amino)phenol], the MIC runs as follows: under setting [1], 16 µg/mL (≈ 47.4 µM); under setting [2], 32 µg/mL (≈ 94.8 µM).

With `Oc1ccc(/C=C/c2nc(-c3ccc(OC4CCCC4)cc3)no2)cc1` [Compound 66, 3-(4-(Cyclopentyloxy)phenyl)-(E)-5-(4-hydroxystyryl)-1,2,4-oxadiazole], the MIC under setting [1] turned out to be 32 µg/mL (≈ 91.8 µM) and the MIC under setting [2] was determined as 64 µg/mL (≈ 184 µM).

As to `Fc1ccccc1-c1noc(-c2ccc3[nH]ccc3c2)n1` [Compound 125, 3-(2-Fluorophenyl)-5-(1H-indol-5-yl)-1,2,4-oxadiazole], the MIC is, setting by setting: under setting [1], over 128 µg/mL; under setting [2], over 128 µg/mL.

In the case of `O=c1[nH]c(-c2ccc(OC3CCCC3)cc2)no1` [Compound 69, 3-(4-(Cyclopentyloxy)phenyl)-1,2,4-oxadiazol-5 (4H)-one], the MIC reads like this: under setting [1], 64 µg/mL (≈ 260 µM); under setting [2], 64 µg/mL (≈ 260 µM).

As to `FC(F)(F)c1ccc(Oc2ccc(-c3noc(-c4cn[nH]c4)n3)cc2)cc1` [Compound 33, 5-(1H-Pyrazol-4-yl)-3-(4-(4-(trifluoromethyl)phenoxy)phenyl)-1,2,4-oxadiazole], the MIC was over 128 µg/mL under setting [1] and over 128 µg/mL under setting [2].

As to `Cl.O=[N+]([O-])c1c[nH]c(-c2nc(-c3ccc(OC4CCNCC4)cc3)no2)n1` [Compound 134, 5-(4-Nitro-1H-imidazol-2-yl)-3-(4-(piperidin-4-yloxy)phenyl)-1,2,4-oxadiazole hydrochloride], the MIC is over 128 µg/mL under setting [1] and over 128 µg/mL under setting [2].

For `Oc1ccc(-c2nc(-c3ccc(OC4CCCC=C4Br)cc3)no2)cc1` (stereo not shown) [Compound 78, 4-(3-(4-((2-Bromocyclohex-2-en-1-yl)oxy)phenyl)-1,2,4-oxadiazol-5-yl)phenol], the “MIC (μg/mL) 48 h” value under setting [3] is over 128 µg/mL. The MIC was over 128 µg/mL (ATCC43255, 24 h, read-out: MIC (μg/mL) 24 h) and over 128 µg/mL (ATCC43255, 48 h, read-out: MIC (μg/mL) 48 h).

For the molecule `Oc1cccc(/C=C/c2nc(-c3ccc(OC4CCCC4)cc3)no2)c1` [Compound 65, 3-(4-(Cyclopentyloxy)phenyl)-(E)-5-(3-hydroxystyryl)-1,2,4-oxadiazole], the MIC is, setting by setting: under setting [1], over 128 µg/mL; under setting [2], over 128 µg/mL.

In the case of `O=[N+]([O-])c1ccc(-c2noc(-c3ccc4[nH]ccc4c3)n2)cc1` [Compound 126, 5-(1H-Indol-5-yl)-3-(4-nitrophenyl)-1,2,4-oxadiazole], the MIC was over 128 µg/mL under setting [1] and over 128 µg/mL under setting [2].

With `O=[N+]([O-])c1ccc(-c2nc(-c3ccc(OC4CCCC4)cc3)no2)cc1` [Compound 50, 3-(4-(Cyclopentyloxy)phenyl)-5-(4-nitrophenyl)-1,2,4-oxadiazole], under setting [3], the “MIC (μg/mL) 48 h” value was over 128 µg/mL. The MIC under setting [1] is over 128 µg/mL.

For the molecule `Oc1ccc(Cc2nc(-c3ccc(OC4CCCC4)cc3)no2)cc1` [Compound 63, 3-(4-(Cyclopentyloxy)phenyl)-5-(4-hydroxybenzyl)-1,2,4-oxadiazole], the MIC under setting [1] came to 8 µg/mL (≈ 23.8 µM) and the MIC under setting [2] came to 16 µg/mL (≈ 47.6 µM).

Take `FC(F)(F)c1ccc(Oc2ccc(-c3noc(-c4ccncc4)n3)cc2)cc1` [Compound 23, 5-(Pyridin-4-yl)-3-(4-(4-(trifluoromethyl)phenoxy)phenyl)-1,2,4-oxadiazole]: the MIC is over 128 µg/mL under setting [1] and over 128 µg/mL under setting [2].

With `Oc1ccc(-c2nc(-c3ccc(Oc4ccccc4)c(Br)c3)no2)cc1` [Compound 79, 4-(3-(3-Bromo-4-phenoxyphenyl)-1,2,4-oxadiazol-5-yl)phenol], the “MIC (μg/mL) 48 h” value under setting [3] was over 128 µg/mL. The MIC under setting [1] was over 128 µg/mL.

For `Cn1c(-c2nc(-c3ccc(OC4CCCC4)cc3)no2)cnc1[N+](=O)[O-]` [Compound 59, 3-(4-(Cyclopentyloxy)phenyl)-5-(1-methyl-2-nitro-1H-imidazol-5-yl)-1,2,4-oxadiazole], the MIC under setting [1] was 32 µg/mL (≈ 90.1 µM).

For the molecule `c1cc2cc(-c3nc(-c4ccc5c(c4)CCN5)no3)ccc2[nH]1` [Compound 129, 5-(1H-Indol-5-yl)-3-(indolin-5-yl)-1,2,4-oxadiazole], the MIC is over 128 µg/mL under setting [1] and over 128 µg/mL under setting [2].

With `C[C@@H](NC(=O)OC(C)(C)C)C(=O)N[C@H](C)c1nc(-c2ccc(OC3CCCC3)cc2)no1` [Compound 62, 5-((R)-1-((R)-2-(Boc-amino)propanamido)ethyl)-3-(4-(cyclopentyloxy)phenyl)-1,2,4-oxadiazole], the MIC was over 128 µg/mL under setting [1] and over 128 µg/mL under setting [2].

Take `C[C@@H](N)c1nc(-c2ccc(OC3CCCC3)cc2)no1` [Compound 61, (R)-1-(3-(4-(Cyclopentyloxy)phenyl)-1,2,4-oxadiazol-5-yl) ethan-1-amine]: the MIC reads like this: under setting [1], over 128 µg/mL; under setting [2], over 128 µg/mL.

Regarding `Fc1ccc2oc3ccc(-c4noc(-c5ccc6[nH]ccc6c5)n4)cc3c2c1` [Compound 121, 3-(8-Fluorodibenzo[b,d]furan-2-yl)-5-(1H-indol-5-yl)-1,2,4-oxadiazole], the MIC by setting is: under setting [1], over 128 µg/mL; under setting [2], over 128 µg/mL.

Turning to `C[C@@H](NC(=O)OC(C)(C)C)c1nc(-c2ccc(OC3CCCC3)cc2)no1` [Compound 60, tert-Butyl (R)-(1-(3-(4-(cyclopentyloxy)phenyl)-1,2,4-oxadiazol-5-yl)ethyl) carbamate], the “MIC (μg/mL) 48 h” value under setting [3] was over 128 µg/mL. The “MIC (μg/mL) 24 h” value (C. difficile ATCC 43255, 24 h) is over 128 µg/mL.

With `Nc1nc(-c2ccc(OC3CCCC3)cc2)no1` [Compound 68, 3-(4-(Cyclopentyloxy)phenyl)-1,2,4-oxadiazol-5-amine], the MIC is over 128 µg/mL under setting [1] and over 128 µg/mL under setting [2].

On to `Oc1ccc(-c2nc(-c3ccc(C(O)C(F)(F)F)cc3)no2)cc1` (stereo not shown) [Compound 108, 4-(3-(4-(2,2,2-Trifluoro-1-hydroxyethyl)phenyl)-1,2,4-oxadiazol-5-yl)phenol], for which the MIC reads like this: under setting [1], 32 µg/mL (≈ 95.2 µM); under setting [2], 32 µg/mL (≈ 95.2 µM).

Turning to `C#CCCOc1ccc(-c2noc(-c3ccc(O)cc3)n2)cc1` [Compound 89, 4-(3-(4-(But-3-yn-1-yloxy)phenyl)-1,2,4-oxadiazol-5-yl)phenol], the MIC was over 128 µg/mL under setting [1] and over 128 µg/mL under setting [2].

Turning to `FC(F)(F)c1ccc(Oc2ccc(-c3noc(-c4cc5ccccc5[nH]4)n3)cc2)cc1` [Compound 48, 5-(1H-Indol-2-yl)-3-(4-(4-(trifluoromethyl)phenoxy)phenyl)-1,2,4-oxadiazole], the MIC under setting [1] is over 128 µg/mL and the MIC under setting [2] was over 128 µg/mL.

For `Clc1nc(-c2ccc(OC3CCCC3)cc2)no1` [Compound 70, 5-Chloro-3-(4-(cyclopentyloxy)phenyl)-1,2,4-oxadiazole], the MIC by setting is: under setting [1], over 128 µg/mL; under setting [2], over 128 µg/mL.

Consider `O=C(NNC(=O)c1ccc(OC2CCCC2)cc1)c1ccc(O)cc1` [Compound 138, 4-(Cyclopentyloxy)-N′-(4-hydroxybenzoyl)benzohydrazide], for which the MIC reads like this: under setting [1], over 128 µg/mL; under setting [2], over 128 µg/mL.

As for `CN1CCC(Oc2ccc(-c3noc(-c4ncc([N+](=O)[O-])[nH]4)n3)cc2)C1.Cl` (stereo not shown) [Compound 132, 3-(4-((1-Methylpyrrolidin-3-yl)oxy)phenyl)-5-(5-nitro-1H-imidazol-2-yl)-1,2,4-oxadiazole hydrochloride], the MIC under setting [1] was over 128 µg/mL and the MIC under setting [2] is over 128 µg/mL.

Take `C#CCOc1ccc(-c2noc(-c3ccc(O)cc3)n2)cc1` [Compound 88, 4-(3-(4-(Prop-2-yn-1-yloxy)phenyl)-1,2,4-oxadiazol-5-yl)phenol]: the MIC by setting is: under setting [1], 16 µg/mL (≈ 54.7 µM); under setting [2], 128 µg/mL (≈ 438 µM).

`O=[N+]([O-])c1cn(CCO)c(-c2nc(-c3ccc(OC4CCCC4)cc3)no2)n1` [Compound 58, 3-(4-(Cyclopentyloxy)phenyl)-5-(1-(2-hydroxyethyl)-4-nitro-1H-imidazol-2-yl)-1,2,4-oxadiazole]: the “antibacterial activity against C. difficile (in words)” value (C. difficile ATCC43255) is “lost activity”. In addition, the MIC under setting [1] was over 128 µg/mL and the MIC under setting [2] was over 128 µg/mL.

Regarding `c1nc2ccc(-c3nc(-c4ccc(OC5CCCC5)cc4)no3)cc2[nH]1` [Compound 55, 5-(1H-Benzo[d]imidazol-6-yl)-3-(4-(cyclopentyloxy)phenyl)-1,2,4-oxadiazole], the “MIC (μg/mL) 48 h” value under setting [3] was 128 µg/mL (≈ 370 µM). For the same molecule, the MIC is, setting by setting: under setting [1], 128 µg/mL (≈ 370 µM); under setting [2], over 128 µg/mL.

Consider `O=C(c1ccc(-c2noc(-c3ccc(O)cc3)n2)cc1)C(F)(F)F` [Compound 109, 5-(4-Hydroxyphenyl)-3-(4-(2,2,2-trifluoroacetyl)phenyl)-1,2,4-oxadiazole], for which the MIC reads like this: under setting [1], 8 µg/mL (≈ 23.9 µM); under setting [2], 8 µg/mL (≈ 23.9 µM).

For the origin of these results see patent US20260125371A1, “METHOD FOR INHIBITING CLOSTRIDIOIDES DIFFICILE SPORE GERMINATION” (UNIVERSITY OF NOTRE DAME DU LAC, priority 2022, published 2026).
